{"source": "patent US6406718B1", "about": "“Orthorhombic crystalline form of fluticasone propionate and pharmaceutical compositions thereof” (SmithKline Beecham Corporation, priority 1996, dated 2002)", "format_in_all_cases": "physicochemical", "key": {"[1]": {"assay": "Particle size distribution by laser diffraction (Malvern Mastersizer)", "description": "The data for four samples of fluticasone propionate of the present invention, produced using the method and apparatus described herein, are presented in Table 2 below. The particle size was determined by laser diffraction (Malvern Mastersizer).\nThe particle size was determined by laser diffraction (Malvern Mastersizer)."}, "[2]": {"assay": "Water content of crystalline forms", "from_the_text": "The water content of the two crystalline forms of fluticasone propionate produced with the apparatus described herein has also been determined, and compared with that of conventionally crystallised and micronised fluticasone propionate."}, "[3]": {"assay": "Dynamic bulk density (fluidisability)", "description": "The dynamic bulk density (W) is indicative of a substance's fluidisability and is defined as: [formula]\nwhere P is the packed bulk density (g cm^−3), A is the aerated bulk density (g cm^−3) and C is the compressibility (%) where C is calculated by the equation: [formula]\nClearly, a low figure for W corresponds to a high degree of fluidisability.\nThe dynamic bulk density for conventionally crystallised fluticasone propionate (micronised and non-micronised) and fluticasone propionate of the present invention are shown in Table 7."}, "[4]": {"assay": "Static charge test (drug retained on vial walls after rolling)", "details": "after rolling drug in the vial for 2 minutes", "description": "A simple test was devised to ascertain a relative static charge based on the quantity of drug remaining coated to the walls of a vial after rolling a predetermined quantity of drug in the vial for 2 minutes. The greater the amount of the drug remaining on the vial, the higher the relative static charge associated with the drug substance."}, "[5]": {"assay": "Solvent content test by NMR", "description": "The solvent content of fluticasone propionate of the present invention was investigated by Nuclear Magnetic Resonance (NMR) and compared to that of conventional crystallised fluticasone propionate. Each sample was tested for acetone content. (The conventionally crystallised fluticasone propionate was crystallised from acetone.) In addition, sample 5 was crystallised from methanol and therefore tested for methanol."}, "[6]": {"assay": "Stability of Form 2 to conversion to Form 1 by XRPD", "details": "after 62 weeks at ambient temperature and humidity", "description": "X-ray powder diffraction (XRPD) patterns were generated using either a Siemens D 5000 or Philips X'pert MPD. The powders were scanned over a 2θ angle range of either 1.5° to 60°, or 0° to 35°, with a 0.02-0.050 step at 3-15 seconds count time using CuKα radiation. The Siemens D5000 measures intensity as counts per second and the Philips X'pert MPD measures intensity as counts."}, "[7]": {"assay": "Particle shape by scanning electron microscopy", "description": "The particle shape was determined by scanning electron microscopy. Data for three samples of fluticasone propionate of the present invention, produced using the method and apparatus described herein, are presented in FIGS. 5 to 7."}, "[8]": {"details": "drug material used in Inhaler Type A for cascade impaction"}, "[9]": {"details": "laser diffraction (Malvern Mastersizer)"}}}
{"substance": "fluticasone propionate [Conventionally crystallised fluticasone propionate (micronis] [reference compound]", "values": [{"measurement": "Mean particle size", "setting": "[1]; [8]", "value": 1.8, "unit": "microns"}, {"measurement": "% <5 μm", "setting": "[1]; [9]", "value": ">90", "unit": "%"}, {"measurement": "% <10 μm", "setting": "[1]; [9]", "value": ">95", "unit": "%"}, {"measurement": "Mean particle size", "setting": "[1]; [9]", "value": "1-3 μm"}, {"measurement": "Uniformity Index", "setting": "[1]; [9]", "value": 15}, {"measurement": "Water content", "setting": "[2]", "value": "<0.1", "unit": "% w/w"}, {"measurement": "Dynamic Bulk Density (W)", "setting": "[3]", "value": 0.21, "unit": "g cm^−3"}, {"measurement": "% Drug retained on vial", "setting": "[4]", "value": 4.5, "unit": "%"}, {"measurement": "Acetone Content", "setting": "[5]", "value": "typically 0.7 % w/w"}]}
{"substance": "fluticasone propionate [Conventionally crystallised fluticasone propionate (non-micr] [reference compound]", "values": [{"measurement": "Dynamic Bulk Density (W)", "setting": "[3]", "value": 0.21, "unit": "g cm^−3"}]}
{"substance": "fluticasone propionate [Form 1 fluticasone propionate prepared as described herein]", "values": [{"measurement": "Water content", "setting": "[2]", "value": "<0.1", "unit": "% w/w"}]}
{"substance": "fluticasone propionate [Form 2 fluticasone propionate prepared as described herein]", "values": [{"measurement": "Conversion of Form 2 to Form 1", "setting": "[6]", "value": "no conversion was seen"}, {"measurement": "Water content", "setting": "[2]", "value": ">0.3", "unit": "% w/w"}]}
{"substance": "fluticasone propionate [Sample 1]", "values": [{"measurement": "% <5 μm", "setting": "[1]; [9]", "value": 48, "unit": "%"}, {"measurement": "% <10 μm", "setting": "[1]; [9]", "value": 81, "unit": "%"}, {"measurement": "Mean particle size", "setting": "[1]; [9]", "value": 5.2, "unit": "μm"}, {"measurement": "Uniformity Index", "setting": "[1]; [9]", "value": 12}]}
{"substance": "fluticasone propionate [Sample 2]", "values": [{"measurement": "% <5 μm", "setting": "[1]; [9]", "value": 20, "unit": "%"}, {"measurement": "% <10 μm", "setting": "[1]; [9]", "value": 48, "unit": "%"}, {"measurement": "Mean particle size", "setting": "[1]; [9]", "value": 10.4, "unit": "μm"}, {"measurement": "Uniformity Index", "setting": "[1]; [9]", "value": 13}]}
{"substance": "fluticasone propionate [Sample 3]", "values": [{"measurement": "% <5 μm", "setting": "[1]; [9]", "value": 6, "unit": "%"}, {"measurement": "% <10 μm", "setting": "[1]; [9]", "value": 13, "unit": "%"}, {"measurement": "Mean particle size", "setting": "[1]; [9]", "value": 31.0, "unit": "μm"}, {"measurement": "Uniformity Index", "setting": "[1]; [9]", "value": 12}, {"measurement": "Dynamic Bulk Density (W)", "setting": "[3]", "value": 0.17, "unit": "g cm^−3"}]}
{"substance": "fluticasone propionate [Sample 4]", "values": [{"measurement": "% <5 μm", "setting": "[1]; [9]", "value": 68, "unit": "%"}, {"measurement": "% <10 μm", "setting": "[1]; [9]", "value": 83, "unit": "%"}, {"measurement": "Mean particle size", "setting": "[1]; [9]", "value": 2.8, "unit": "μm"}, {"measurement": "Uniformity Index", "setting": "[1]; [9]", "value": 4}]}
{"substance": "fluticasone propionate [Sample 5]", "values": [{"measurement": "Particle shape", "setting": "[7]", "value": "acicular"}, {"measurement": "Acetone Content", "setting": "[5]", "value": "Not Detected"}, {"measurement": "Methanol Content", "setting": "[5]", "value": "Not Detected"}]}
{"substance": "fluticasone propionate [Sample 6]", "values": [{"measurement": "% <5 μm", "setting": "[1]; [9]", "value": 24, "unit": "%"}, {"measurement": "% <10 μm", "setting": "[1]; [9]", "value": 51, "unit": "%"}, {"measurement": "Mean particle size", "setting": "[1]; [9]", "value": 9.7, "unit": "μm"}, {"measurement": "Uniformity Index", "setting": "[1]; [9]", "value": 10}, {"measurement": "Particle shape", "setting": "[7]", "value": "flake-like"}]}
{"substance": "fluticasone propionate [Sample 7]", "values": [{"measurement": "Particle shape", "setting": "[7]", "value": "equant"}]}
{"substance": "fluticasone propionate [Sample 8]", "values": [{"measurement": "% <5 μm", "setting": "[1]; [9]", "value": 23, "unit": "%"}, {"measurement": "% <10 μm", "setting": "[1]; [9]", "value": 53, "unit": "%"}, {"measurement": "Mean particle size", "setting": "[1]; [9]", "value": 9.4, "unit": "μm"}, {"measurement": "Uniformity Index", "setting": "[1]; [9]", "value": 11}, {"measurement": "Acetone Content", "setting": "[5]", "value": "Not Detected"}]}
{"substance": "fluticasone propionate [Sample 9]", "values": [{"measurement": "% <5 μm", "setting": "[1]; [9]", "value": 23, "unit": "%"}, {"measurement": "% <10 μm", "setting": "[1]; [9]", "value": 52, "unit": "%"}, {"measurement": "Mean particle size", "setting": "[1]; [9]", "value": 9.6, "unit": "μm"}, {"measurement": "Uniformity Index", "setting": "[1]; [9]", "value": 12}]}
{"substance": "fluticasone propionate [Sample 12]", "values": [{"measurement": "Dynamic Bulk Density (W)", "setting": "[3]", "value": 0.05, "unit": "g cm^−3"}]}
{"substance": "fluticasone propionate [Sample 13]", "values": [{"measurement": "Dynamic Bulk Density (W)", "setting": "[3]", "value": 0.06, "unit": "g cm^−3"}]}
{"substance": "fluticasone propionate [Sample 14]", "values": [{"measurement": "% Drug retained on vial", "setting": "[4]", "value": 3.8, "unit": "%"}]}
{"substance": "fluticasone propionate [Sample 15]", "values": [{"measurement": "% Drug retained on vial", "setting": "[4]", "value": 4.2, "unit": "%"}, {"measurement": "Acetone Content", "setting": "[5]", "value": "Not Detected"}]}
{"substance": "fluticasone propionate [Sample 16]", "values": [{"measurement": "% Drug retained on vial", "setting": "[4]", "value": 7.6, "unit": "%"}]}
{"substance": "fluticasone propionate [Sample 17]", "values": [{"measurement": "% Drug retained on vial", "setting": "[4]", "value": 8.6, "unit": "%"}]}
{"substance": "fluticasone propionate [Sample 19]", "values": [{"measurement": "Mean particle size", "setting": "[1]; [8]", "value": 4.8, "unit": "microns"}]}
